Where two headings read alike, the source gives them in different places.
Columns and labels:
[1] = biological target: biotinylated human Gal-3 (hGal-3) (Homo sapiens, UniProt P17931); assay: Competitive binding assay: biotinylated hGal-3 binding to microplate-adsorbed asialofetuin (ASF), spectrophotometric
Method in brief: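 Serially diluted compounds competed with asialofetuin on the plate for biotinylated human Gal-3 during a 3 h incubation at 4° C. Streptavidin-peroxidase with ABTS gave the spectrophotometric signal. IC50 values were averaged over repeat runs.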

[2] = biological target: human Gal-1 (hGal-1) (Homo sapiens, UniProt P09382); assay: Competitive binding assay: biotinylated hGal-1 binding to microplate-adsorbed asialofetuin (ASF), spectrophotometric; details: hGal-1 binding to asialofetuin; Table 15; R and S epimers of selected Examples also listed; read-out: IC50 (Galectin-1 inhibition)
Procedure: Biological Assay Evaluation of Compound Inhibitory Activity (IC50)
The inhibitory activity of compounds is determined in competitive binding assays. This spectrophotometric assay measures the binding of biotinylated human Gal-3 (hGal-3) or human Gal-1 (hGal-1), respectively, to a microplate-adsorbed glycoprotein, asialofetuin (ASF) (Proc Natl Acad Sci USA. 2013 Mar. 26; 110(13):5052-7.).
Briefly, compounds are serially diluted in DMSO (working dilutions). ASF-coated 384well plates are supplemented with 22.8 μL/well of biotinylated hGal-3 or hGal-1 in assay buffer (i.e. 300-1000 ng/mL biotinylated hGal-3 or hGal-1) to which 1.2 μL of compound working dilutions are added and mixed.
Plates are incubated for 3 hours at 4° C., then washed with cold assay buffer (3×50 uL), incubated for 1 hour with 25 μL/well of a streptavidin-peroxidase solution (diluted in assay buffer to 80 ng/mL) at 4° C., followed by further washing steps with assay buffer (3×50 uL). Finally, 25 μL/well of ABTS substrate is added.
The calculated IC50 values may fluctuate depending on the daily assay performance. Fluctuations of this kind are known to those skilled in the art. IC50 values from several measurements are given as mean values.

[3] = Table 6, hGal-3, read-out: IC50 (Gal-3 inhibition)
[4] = Gal-3 inhibition, Table 5, read-out: IC50

human Gal-1 (hGal-1), sequence (P09382 whole entry): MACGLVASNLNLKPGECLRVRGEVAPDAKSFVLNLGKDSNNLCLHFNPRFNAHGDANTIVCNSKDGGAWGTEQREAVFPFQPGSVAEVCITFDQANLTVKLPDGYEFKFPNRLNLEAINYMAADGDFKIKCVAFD
biotinylated human Gal-3 (hGal-3), sequence (P17931 whole entry): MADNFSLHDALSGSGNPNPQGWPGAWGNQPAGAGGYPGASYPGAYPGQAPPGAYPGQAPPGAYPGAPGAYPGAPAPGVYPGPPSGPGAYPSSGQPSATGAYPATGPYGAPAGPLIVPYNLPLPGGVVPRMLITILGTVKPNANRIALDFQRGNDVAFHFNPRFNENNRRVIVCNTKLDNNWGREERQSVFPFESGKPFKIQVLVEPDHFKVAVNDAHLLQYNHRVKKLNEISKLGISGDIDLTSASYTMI

`CN(Cc1cn(C)cn1)C(=O)C(S[C@@H]1O[C@H](CO)[C@H](O)[C@H](n2cc(-c3cc(F)c(F)c(F)c3)nn2)[C@H]1O)C(C)(C)O` (stereo partly drawn) [Example 2.31.215., 2-(((2S,3R,4S,5R,6R)-3,5-Dihydroxy-6-(hydroxymethyl)-4-(4-(3,4,5-trifluorophenyl)-1H-1,2,3-triazol-1-yl)tetrahydro-2H-pyran-2-yl)thio)-3-hydroxy-N,3-dimethyl-N-((1-methyl-1H-imidazol-4-yl)methyl)butanamide] showed an IC50 [1, 3] of 190 nM and an IC50 [2] of 1680 nM.

Work on `CN(CC1CC1)C(=O)C(S[C@@H]1O[C@H](CO)[C@H](O)[C@H](n2cc(-c3cc(F)c(F)c(F)c3)nn2)[C@H]1O)C(C)(C)O` (stereo partly drawn) [Example 2.31.218., N-(Cyclopropylmethyl)-2-(((2S,3R,4S,5R,6R)-3,5-dihydroxy-6-(hydroxymethyl)-4-(4-(3,4,5-trifluorophenyl)-1H-1,2,3-triazol-1-yl)tetrahydro-2H-pyran-2-yl)thio)-3-hydroxy-N,3-dimethylbutanamide] yielded an IC50 [1, 3] of 30 nM and an IC50 [2] of 220 nM.

With `CN(CC(C)(C)C)C(=O)C(S[C@@H]1O[C@H](CO)[C@H](O)[C@H](n2cc(-c3cc(F)c(F)c(F)c3)nn2)[C@H]1O)C(C)(C)O` (stereo partly drawn) [Example 2.31.228., 2-(((2S,3R,4S,5R,6R)-3,5-Dihydroxy-6-(hydroxymethyl)-4-(4-(3,4,5-trifluorophenyl)-1H-1,2,3-triazol-1-yl)tetrahydro-2H-pyran-2-yl)thio)-3-hydroxy-N,3-dimethyl-N-neopentylbutanamide] the IC50 [1, 3] was 670 nM and the IC50 [2] was 1650 nM.

Compound `COCCN(C)C(=O)C(S[C@@H]1O[C@H](CO)[C@H](O)[C@H](n2cc(-c3cc(F)c(F)c(F)c3)nn2)[C@H]1O)C(C)(C)O` (stereo partly drawn) [Example 2.31.229., 2-(((2S,3R,4S,5R,6R)-3,5-Dihydroxy-6-(hydroxymethyl)-4-(4-(3,4,5-trifluorophenyl)-1H-1,2,3-triazol-1-yl)tetrahydro-2H-pyran-2-yl)thio)-3-hydroxy-N-(2-methoxyethyl)-N,3-dimethylbutanamide] has an IC50 [1, 3] of 110 nM and an IC50 [2] of 800 nM.

In the case of `CN(CCN1CCOCC1)C(=O)C(S[C@@H]1O[C@H](CO)[C@H](O)[C@H](n2cc(-c3cc(F)c(F)c(F)c3)nn2)[C@H]1O)C(C)(C)O` (stereo partly drawn) [Example 2.31.230., 2-(((2S,3R,4S,5R,6R)-3,5-Dihydroxy-6-(hydroxymethyl)-4-(4-(3,4,5-trifluorophenyl)-1H-1,2,3-triazol-1-yl)tetrahydro-2H-pyran-2-yl)thio)-3-hydroxy-N,3-dimethyl-N-(2-morpholinoethyl)butanamide], the IC50 [1, 3] is reported as 110 nM and the IC50 [2] is reported as 1250 nM.

`CCN(C)C(=O)C(S[C@@H]1O[C@H](CO)[C@H](O)[C@H](n2cc(-c3cc(F)c(F)c(F)c3)nn2)[C@H]1O)C(O)(CC)CC` (stereo partly drawn) [Example 2.32.203., 2-(((2S,3R,4S,5R,6R)-3,5-Dihydroxy-6-(hydroxymethyl)-4-(4-(3,4,5-trifluorophenyl)-1H-1,2,3-triazol-1-yl)tetrahydro-2H-pyran-2-yl)thio)-N,3-diethyl-3-hydroxy-N-methylpentanamide] gave an IC50 [1, 3] of 490 nM and an IC50 [2] of 1890 nM.

Compound `CCN(C)C(=O)[C@H](S[C@@H]1O[C@H](CO)[C@H](O)[C@H](n2cc(-c3cc(F)c(F)c(F)c3)nn2)[C@H]1O)C(O)(CC)CC` [Example 2.32.203R., (R)-2-(((2S,3R,4S,5R,6R)-3,5-Dihydroxy-6-(hydroxymethyl)-4-(4-(3,4,5-trifluorophenyl)-1H-1,2,3-triazol-1-yl)tetrahydro-2H-pyran-2-yl)thio)-N,3-diethyl-3-hydroxy-N-methylpentanamide] has an IC50 [1, 3] of 4550 nM and an IC50 [2] of 30800 nM.

In the case of `CCN(C)C(=O)[C@@H](S[C@@H]1O[C@H](CO)[C@H](O)[C@H](n2cc(-c3cc(F)c(F)c(F)c3)nn2)[C@H]1O)C(O)(CC)CC` [Example 2.32.203S., (S)-2-(((2S,3R,4S,5R,6R)-3,5-Dihydroxy-6-(hydroxymethyl)-4-(4-(3,4,5-trifluorophenyl)-1H-1,2,3-triazol-1-yl)tetrahydro-2H-pyran-2-yl)thio)-N,3-diethyl-3-hydroxy-N-methylpentanamide], the IC50 [1, 3] is reported as 240 nM and the IC50 [2] is reported as 730 nM.

For `CCC(O)(CC)C(S[C@@H]1O[C@H](CO)[C@H](O)[C@H](n2cc(-c3cc(F)c(F)c(F)c3)nn2)[C@H]1O)C(=O)N(C)CC1CC1` (stereo partly drawn) [Example 2.32.218., N-(Cyclopropylmethyl)-2-(((2S,3R,4S,5R,6R)-3,5-dihydroxy-6-(hydroxymethyl)-4-(4-(3,4,5-trifluorophenyl)-1H-1,2,3-triazol-1-yl)tetrahydro-2H-pyran-2-yl)thio)-3-ethyl-3-hydroxy-N-methylpentanamide], the IC50 [1, 3] was 710 nM and the IC50 [2] was 1130 nM.

In the case of `CCC(O)(CC)C(S[C@@H]1O[C@H](CO)[C@H](O)[C@H](n2cc(-c3cc(F)c(F)c(F)c3)nn2)[C@H]1O)C(=O)N(C)CC(C)(C)F` (stereo partly drawn) [Example 2.32.222., 2-(((2S,3R,4S,5R,6R)-3,5-Dihydroxy-6-(hydroxymethyl)-4-(4-(3,4,5-trifluorophenyl)-1H-1,2,3-triazol-1-yl)tetrahydro-2H-pyran-2-yl)thio)-3-ethyl-N-(2-fluoro-2-methylpropyl)-3-hydroxy-N-methylpentanamide], the IC50 [1, 3] is reported as 360 nM and the IC50 [2] is reported as 2060 nM.

`CCN(C)C(=O)[C@H](S[C@@H]1O[C@H](CO)[C@H](O)[C@H](n2cc(-c3cc(F)c(F)c(F)c3)nn2)[C@H]1O)C1(O)CC(F)(F)C1` [Example 2.33.203R., (R)-2-(3,3-Difluoro-1-hydroxycyclobutyl)-2-(((2S,3R,4S,5R,6R)-3,5-dihydroxy-6-(hydroxymethyl)-4-(4-(3,4,5-trifluorophenyl)-1H-1,2,3-triazol-1-yl)tetrahydro-2H-pyran-2-yl)thio)-N-ethyl-N-methylacetamide] showed an IC50 [1, 4] of 1450 nM and an IC50 [2] of 4200 nM.

In the case of `CCN(C)C(=O)[C@@H](S[C@@H]1O[C@H](CO)[C@H](O)[C@H](n2cc(-c3cc(F)c(F)c(F)c3)nn2)[C@H]1O)C1(O)CC(F)(F)C1` [Example 2.33.203S., (S)-2-(3,3-Difluoro-1-hydroxycyclobutyl)-2-(((2S,3R,4S,5R,6R)-3,5-dihydroxy-6-(hydroxymethyl)-4-(4-(3,4,5-trifluorophenyl)-1H-1,2,3-triazol-1-yl)tetrahydro-2H-pyran-2-yl)thio)-N-ethyl-N-methylacetamide], the IC50 [1, 4] is reported as 50 nM and the IC50 [2] is reported as 110 nM.

`O=C(C(S[C@@H]1O[C@H](CO)[C@H](O)[C@H](n2cc(-c3cc(F)c(F)c(F)c3)nn2)[C@H]1O)C1(O)CC(F)(F)C1)N1CCC1` (stereo partly drawn) [Example 2.33.206., 1-(Azetidin-1-yl)-2-(3,3-difluoro-1-hydroxycyclobutyl)-2-(((2S,3R,4S,5R,6R)-3,5-dihydroxy-6-(hydroxymethyl)-4-(4-(3,4,5-trifluorophenyl)-1H-1,2,3-triazol-1-yl)tetrahydro-2H-pyran-2-yl)thio)ethan-1-one] was tested, and the IC50 [1, 4] was 580 nM and the IC50 [2] was 1710 nM.

`CN(CC1CC1)C(=O)[C@H](S[C@@H]1O[C@H](CO)[C@H](O)[C@H](n2cc(-c3cc(F)c(F)c(F)c3)nn2)[C@H]1O)C1(O)CC(F)(F)C1` [Example 2.33.218R., (R)-N-(Cyclopropylmethyl)-2-(3,3-difluoro-1-hydroxycyclobutyl)-2-(((2S,3R,4S,5R,6R)-3,5-dihydroxy-6-(hydroxymethyl)-4-(4-(3,4,5-trifluorophenyl)-1H-1,2,3-triazol-1-yl)tetrahydro-2H-pyran-2-yl)thio)-N-methylacetamide] was tested, and the IC50 [1, 4] was 440 nM and the IC50 [2] was 580 nM.

For `CN(CC1CC1)C(=O)[C@@H](S[C@@H]1O[C@H](CO)[C@H](O)[C@H](n2cc(-c3cc(F)c(F)c(F)c3)nn2)[C@H]1O)C1(O)CC(F)(F)C1` [Example 2.33.218S., (S)-N-(Cyclopropylmethyl)-2-(3,3-difluoro-1-hydroxycyclobutyl)-2-(((2S,3R,4S,5R,6R)-3,5-dihydroxy-6-(hydroxymethyl)-4-(4-(3,4,5-trifluorophenyl)-1H-1,2,3-triazol-1-yl)tetrahydro-2H-pyran-2-yl)thio)-N-methylacetamide], the IC50 [1, 4] was 40 nM and the IC50 [2] was 60 nM.

Work on `CCN(C)C(=O)C(S[C@@H]1O[C@H](CO)[C@H](O)[C@H](n2cc(-c3cc(F)c(F)c(F)c3)nn2)[C@H]1O)C1(O)CCC1` (stereo partly drawn) [Example 2.34.203., 2-(((2S,3R,4S,5R,6R)-3,5-Dihydroxy-6-(hydroxymethyl)-4-(4-(3,4,5-trifluorophenyl)-1H-1,2,3-triazol-1-yl)tetrahydro-2H-pyran-2-yl)thio)-N-ethyl-2-(1-hydroxycyclobutyl)-N-methylacetamide] yielded an IC50 [1, 4] of 400 nM and an IC50 [2] of 640 nM.

With `CCN(C)C(=O)[C@H](S[C@@H]1O[C@H](CO)[C@H](O)[C@H](n2cc(-c3cc(F)c(F)c(F)c3)nn2)[C@H]1O)C1(O)CCC1` [Example 2.34.203R., (R)-2-(((2S,3R,4S,5R,6R)-3,5-Dihydroxy-6-(hydroxymethyl)-4-(4-(3,4,5-trifluorophenyl)-1H-1,2,3-triazol-1-yl)tetrahydro-2H-pyran-2-yl)thio)-N-ethyl-2-(1-hydroxycyclobutyl)-N-methylacetamide] the IC50 [1, 4] was 3580 nM and the IC50 [2] was 28300 nM.

Reference: patent US12410208B2, “(2-acetamidyl)thio-beta-D-galactopyranoside derivatives” (Idorsia Pharmaceuticals Ltd, priority 2020, dated 2025)
